The values that follow come from publication PMC11187126, “Structure and dynamics of the pyroglutamylated RF-amide peptide QRFP receptor GPR103” (Nature Communications, 2024).

The assay concerns the target T1, GPR103 ΔCterm (Homo sapiens, UniProt Q96P65).
T1 construct: we truncated the C-terminal residues after G366 of human GPR103; expressed in transfected cells; host or cells: HEK293 cells, pCAGGS vector
T1 sequence (Q96P65 1-366): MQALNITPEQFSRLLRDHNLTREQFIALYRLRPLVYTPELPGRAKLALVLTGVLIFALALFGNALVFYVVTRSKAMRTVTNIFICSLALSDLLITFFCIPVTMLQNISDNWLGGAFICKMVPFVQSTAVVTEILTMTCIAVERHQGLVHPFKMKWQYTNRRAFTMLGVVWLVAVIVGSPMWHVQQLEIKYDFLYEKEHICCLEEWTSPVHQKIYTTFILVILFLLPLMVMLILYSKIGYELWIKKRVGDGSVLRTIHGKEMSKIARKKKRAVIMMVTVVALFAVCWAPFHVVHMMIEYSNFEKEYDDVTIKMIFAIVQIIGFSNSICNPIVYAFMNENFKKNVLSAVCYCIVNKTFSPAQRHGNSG
Kind of assay: TGFα shedding assay; Exp. level WT (1:20). The class given is cell-based.

Like-named read-outs stand apart in the source and are kept apart here. No end group written: not given here.

On to TSGPLGNLAEELNGYSRKKGGFSFRF-NH2 [QRFP26], for which the Emax stood at 83.85 % WT (Exp. #1); 86.40 % WT (Exp. #2); 89.99 % WT (Exp. #3); 86.8% (mean, read-out: Emax). For the same substance, the EC50 (n = 3) is 11.2 nM.

What is called EC50 is the concentration giving half of the maximal effect. Lower therefore signals a more potent agent.
